Data taken from ChEMBL document CHEMBL1201862, “PubChem BioAssay data set” (2004).
Calls of active or inactive are those of the source.

How the values were obtained:
Fatty acid synthase [1] = target: T1, Fatty acid synthase (Homo sapiens, UniProt P49327); assay: FAS thioesterase domain inhibitors, dose response, biochemical, endpoint fluorescence intensity, uHTS hits (AID 624327); type: functional;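 further: fluorescence from hydrolysis of an O-methyl fluorescein acyl ester substrate by the enzyme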
T1 sequence (P49327 whole entry, the tested form may be a part): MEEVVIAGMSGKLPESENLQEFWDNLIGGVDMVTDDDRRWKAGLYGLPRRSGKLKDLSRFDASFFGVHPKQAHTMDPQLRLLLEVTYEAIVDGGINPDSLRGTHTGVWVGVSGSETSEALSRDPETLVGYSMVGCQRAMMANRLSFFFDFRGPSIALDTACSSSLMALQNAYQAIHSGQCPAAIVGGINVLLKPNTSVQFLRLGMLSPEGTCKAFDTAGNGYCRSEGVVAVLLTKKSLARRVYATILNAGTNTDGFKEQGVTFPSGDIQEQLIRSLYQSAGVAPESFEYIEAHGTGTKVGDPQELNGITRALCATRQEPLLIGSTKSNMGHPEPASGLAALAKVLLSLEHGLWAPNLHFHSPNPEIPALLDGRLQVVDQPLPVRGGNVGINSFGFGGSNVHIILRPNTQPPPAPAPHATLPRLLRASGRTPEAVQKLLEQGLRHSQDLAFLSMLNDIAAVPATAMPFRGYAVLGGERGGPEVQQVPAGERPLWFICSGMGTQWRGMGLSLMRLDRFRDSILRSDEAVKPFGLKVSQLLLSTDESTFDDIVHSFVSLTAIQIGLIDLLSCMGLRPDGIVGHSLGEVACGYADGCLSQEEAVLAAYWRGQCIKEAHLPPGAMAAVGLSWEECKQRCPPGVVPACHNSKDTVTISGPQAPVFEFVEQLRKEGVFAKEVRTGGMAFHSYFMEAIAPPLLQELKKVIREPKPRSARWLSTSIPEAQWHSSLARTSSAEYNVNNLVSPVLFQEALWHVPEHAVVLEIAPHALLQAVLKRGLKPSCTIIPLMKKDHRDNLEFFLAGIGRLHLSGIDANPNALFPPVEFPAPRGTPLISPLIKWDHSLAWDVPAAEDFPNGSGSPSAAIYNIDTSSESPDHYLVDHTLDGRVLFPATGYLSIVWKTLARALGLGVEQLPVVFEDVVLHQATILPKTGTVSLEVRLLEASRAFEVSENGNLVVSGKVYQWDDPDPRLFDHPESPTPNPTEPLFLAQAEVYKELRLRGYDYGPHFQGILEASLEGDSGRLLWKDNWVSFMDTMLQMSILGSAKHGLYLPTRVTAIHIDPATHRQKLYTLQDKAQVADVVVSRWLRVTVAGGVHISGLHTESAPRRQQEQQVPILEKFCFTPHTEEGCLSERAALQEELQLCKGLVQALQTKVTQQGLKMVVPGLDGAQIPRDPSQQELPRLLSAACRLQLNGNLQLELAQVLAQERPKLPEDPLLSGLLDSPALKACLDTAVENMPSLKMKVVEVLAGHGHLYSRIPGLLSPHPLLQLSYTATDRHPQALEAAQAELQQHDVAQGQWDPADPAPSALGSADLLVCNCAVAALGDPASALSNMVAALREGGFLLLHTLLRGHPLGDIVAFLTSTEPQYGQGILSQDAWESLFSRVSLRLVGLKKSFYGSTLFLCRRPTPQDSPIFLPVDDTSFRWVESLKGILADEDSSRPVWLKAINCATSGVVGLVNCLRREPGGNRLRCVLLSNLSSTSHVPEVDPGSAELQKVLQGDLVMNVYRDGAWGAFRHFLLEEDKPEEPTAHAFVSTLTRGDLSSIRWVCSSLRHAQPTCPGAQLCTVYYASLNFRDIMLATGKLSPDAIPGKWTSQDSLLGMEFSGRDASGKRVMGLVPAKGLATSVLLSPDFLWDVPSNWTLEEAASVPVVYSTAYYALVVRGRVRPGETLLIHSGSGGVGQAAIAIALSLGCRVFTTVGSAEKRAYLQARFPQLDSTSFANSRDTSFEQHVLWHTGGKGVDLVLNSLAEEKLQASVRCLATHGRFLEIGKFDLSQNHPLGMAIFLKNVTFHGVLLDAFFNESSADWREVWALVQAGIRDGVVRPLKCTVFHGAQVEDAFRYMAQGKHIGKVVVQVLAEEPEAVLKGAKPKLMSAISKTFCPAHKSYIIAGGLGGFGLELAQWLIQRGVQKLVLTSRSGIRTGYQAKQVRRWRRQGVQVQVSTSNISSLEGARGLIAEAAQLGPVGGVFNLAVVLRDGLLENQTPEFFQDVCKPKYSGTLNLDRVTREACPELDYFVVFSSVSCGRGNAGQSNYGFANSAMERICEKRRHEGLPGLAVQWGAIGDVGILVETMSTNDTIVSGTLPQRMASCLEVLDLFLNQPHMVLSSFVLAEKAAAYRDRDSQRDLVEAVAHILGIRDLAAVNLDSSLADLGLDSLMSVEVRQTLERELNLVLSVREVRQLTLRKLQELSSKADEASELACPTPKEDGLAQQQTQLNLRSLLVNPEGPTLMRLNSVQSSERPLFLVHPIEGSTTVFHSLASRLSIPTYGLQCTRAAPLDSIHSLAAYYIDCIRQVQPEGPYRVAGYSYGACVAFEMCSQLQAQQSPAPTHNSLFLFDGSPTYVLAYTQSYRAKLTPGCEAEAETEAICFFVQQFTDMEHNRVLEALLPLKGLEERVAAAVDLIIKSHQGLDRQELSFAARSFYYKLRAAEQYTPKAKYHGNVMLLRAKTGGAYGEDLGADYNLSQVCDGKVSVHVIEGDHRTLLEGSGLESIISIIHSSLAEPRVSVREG

Fatty acid synthase [2] = target: T1, Fatty acid synthase; assay: FAS thioesterase domain inhibitors, dose response, biochemical, kinetic fluorescence intensity (AID 624326); type: functional;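 further: rate of fluorescence rise from hydrolysis of a fluorogenic O-methyl fluorescein ester substrate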
[3] = target: Voltage-dependent T-type calcium channel subunit alpha-1H (Homo sapiens, UniProt O95180); type: functional;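 further: channel activity triggered by adding a high calcium stimulation buffer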
Chain of Voltage-dependent T-type calcium channel subunit alpha-1H (O95180 whole entry): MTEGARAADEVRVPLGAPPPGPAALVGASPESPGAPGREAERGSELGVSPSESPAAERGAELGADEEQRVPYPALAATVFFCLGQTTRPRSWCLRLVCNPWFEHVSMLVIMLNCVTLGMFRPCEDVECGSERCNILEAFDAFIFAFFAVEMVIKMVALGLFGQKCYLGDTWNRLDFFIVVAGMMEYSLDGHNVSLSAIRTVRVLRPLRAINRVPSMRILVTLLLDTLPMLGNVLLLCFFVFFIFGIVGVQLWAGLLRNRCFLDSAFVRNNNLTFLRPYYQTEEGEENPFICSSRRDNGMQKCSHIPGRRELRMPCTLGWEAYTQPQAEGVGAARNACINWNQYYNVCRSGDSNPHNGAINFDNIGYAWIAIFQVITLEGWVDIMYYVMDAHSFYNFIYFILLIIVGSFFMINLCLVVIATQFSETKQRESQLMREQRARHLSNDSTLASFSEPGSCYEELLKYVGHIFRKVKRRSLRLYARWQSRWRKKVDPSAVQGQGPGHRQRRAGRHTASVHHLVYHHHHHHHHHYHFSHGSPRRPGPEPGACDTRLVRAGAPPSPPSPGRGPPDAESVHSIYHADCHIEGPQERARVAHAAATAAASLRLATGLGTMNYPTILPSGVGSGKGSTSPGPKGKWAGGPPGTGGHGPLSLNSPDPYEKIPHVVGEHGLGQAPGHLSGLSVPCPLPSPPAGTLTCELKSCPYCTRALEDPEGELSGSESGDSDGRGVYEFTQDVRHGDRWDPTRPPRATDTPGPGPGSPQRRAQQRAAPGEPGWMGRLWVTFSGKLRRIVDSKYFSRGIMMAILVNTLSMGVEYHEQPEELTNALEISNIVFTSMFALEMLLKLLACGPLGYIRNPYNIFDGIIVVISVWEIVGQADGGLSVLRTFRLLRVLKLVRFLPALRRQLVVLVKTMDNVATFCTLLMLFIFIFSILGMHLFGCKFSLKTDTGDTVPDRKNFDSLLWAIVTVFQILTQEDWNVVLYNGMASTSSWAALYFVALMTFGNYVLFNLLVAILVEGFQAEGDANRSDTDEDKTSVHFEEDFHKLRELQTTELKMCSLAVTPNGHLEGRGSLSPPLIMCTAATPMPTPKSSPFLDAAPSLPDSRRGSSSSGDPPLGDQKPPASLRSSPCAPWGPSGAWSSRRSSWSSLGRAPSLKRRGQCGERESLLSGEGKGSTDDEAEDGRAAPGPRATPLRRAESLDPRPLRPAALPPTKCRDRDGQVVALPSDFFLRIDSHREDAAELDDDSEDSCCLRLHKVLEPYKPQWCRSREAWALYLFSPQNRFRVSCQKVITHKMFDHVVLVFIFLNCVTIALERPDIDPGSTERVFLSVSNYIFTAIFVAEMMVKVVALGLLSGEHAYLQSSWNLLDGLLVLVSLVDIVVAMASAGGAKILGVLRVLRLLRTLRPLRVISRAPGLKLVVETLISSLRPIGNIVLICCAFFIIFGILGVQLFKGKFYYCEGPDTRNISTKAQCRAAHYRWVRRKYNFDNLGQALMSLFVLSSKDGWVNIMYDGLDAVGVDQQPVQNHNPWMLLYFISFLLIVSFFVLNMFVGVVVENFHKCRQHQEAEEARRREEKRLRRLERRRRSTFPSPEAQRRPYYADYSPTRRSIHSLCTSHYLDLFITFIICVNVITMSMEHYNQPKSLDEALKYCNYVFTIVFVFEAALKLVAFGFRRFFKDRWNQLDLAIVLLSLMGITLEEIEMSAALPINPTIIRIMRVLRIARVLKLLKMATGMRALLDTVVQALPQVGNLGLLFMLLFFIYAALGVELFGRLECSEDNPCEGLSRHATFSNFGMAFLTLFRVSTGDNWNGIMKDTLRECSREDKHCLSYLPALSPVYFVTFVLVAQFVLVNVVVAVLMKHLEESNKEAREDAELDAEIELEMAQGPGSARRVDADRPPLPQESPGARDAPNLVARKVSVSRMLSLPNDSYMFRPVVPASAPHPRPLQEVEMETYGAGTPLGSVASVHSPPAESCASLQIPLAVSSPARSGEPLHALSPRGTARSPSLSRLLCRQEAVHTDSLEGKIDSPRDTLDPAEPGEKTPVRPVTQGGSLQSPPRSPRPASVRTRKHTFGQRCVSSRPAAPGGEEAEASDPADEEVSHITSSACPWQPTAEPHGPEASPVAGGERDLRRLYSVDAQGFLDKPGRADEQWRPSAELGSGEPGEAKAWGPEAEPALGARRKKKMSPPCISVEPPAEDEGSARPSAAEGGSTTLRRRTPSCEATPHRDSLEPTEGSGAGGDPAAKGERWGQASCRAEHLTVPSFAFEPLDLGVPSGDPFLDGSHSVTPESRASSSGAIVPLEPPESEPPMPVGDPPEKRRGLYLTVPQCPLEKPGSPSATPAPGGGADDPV

Leucine aminopeptidase = target: T2, Leucine aminopeptidase (Plasmodium falciparum 3D7, UniProt Q8IL11); assay: P. falciparum M17LAP inhibitors, primary screen, biochemical, fluorogenic H-Leu-NHMec substrate, 1536-well (AID 1619); type: functional
T2 sequence (Q8IL11 whole entry): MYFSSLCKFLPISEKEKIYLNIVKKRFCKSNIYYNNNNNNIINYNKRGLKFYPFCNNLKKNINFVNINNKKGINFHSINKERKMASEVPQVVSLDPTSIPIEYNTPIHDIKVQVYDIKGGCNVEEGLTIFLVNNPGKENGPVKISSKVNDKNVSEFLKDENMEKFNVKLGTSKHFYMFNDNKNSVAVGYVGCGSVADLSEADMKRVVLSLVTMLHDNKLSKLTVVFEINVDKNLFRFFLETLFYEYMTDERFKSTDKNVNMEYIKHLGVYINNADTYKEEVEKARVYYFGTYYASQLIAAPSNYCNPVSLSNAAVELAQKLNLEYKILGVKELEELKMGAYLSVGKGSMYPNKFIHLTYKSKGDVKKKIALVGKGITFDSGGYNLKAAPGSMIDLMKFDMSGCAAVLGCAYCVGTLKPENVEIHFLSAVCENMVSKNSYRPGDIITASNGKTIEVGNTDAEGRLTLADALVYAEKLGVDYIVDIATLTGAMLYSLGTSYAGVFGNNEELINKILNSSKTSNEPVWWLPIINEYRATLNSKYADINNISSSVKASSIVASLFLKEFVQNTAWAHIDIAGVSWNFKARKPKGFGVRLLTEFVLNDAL

[4] = target: T3, Polyadenylate-binding protein 1 (Homo sapiens, UniProt P11940); assay: PABP1 MLLE–PAM2 interaction inhibitors, dose response, miRNA deadenylation inhibitor project, biochemical, fluorescence polarization, Cy5-PAM2 peptide, secondary (AID 602260); type: functional; conditions: read-out: IC50_Mean
[5] = target: T3, Polyadenylate-binding protein 1; assay: PABP1 MLLE–PAM2 binding inhibitor potency, dose response, biochemical, fluorescence polarization, FITC-PAM2 peptide (AID 602259); type: functional; conditions: read-out: IC50_Mean
[6] = inhibitors of HIV Env-driven cell fusion, dose response, cherry-pick (AID 652057); type: functional, cell-based
[7] = ZM109 Env clade C HIV-1 fusion inhibitors, dose response, HeLa effector, CEM target cells, luciferase, cherry-pick (AID 652058); type: functional, cell-based
[8] = off-target signal loss in HeLa-CEM21 co-culture – HeLa F-luc CTL cells, cherry-picked, counter-screen for HIV-1 Env fusion inhibitor project, dose response (AID 652040); type: functional, cell-based;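 further: potency for signal decrease marking cytotoxic or nonspecific inhibition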
[9] = inhibitors of clade B AD8 Env fusion, dose response, cell-based, cherry-pick (AID 652062); type: functional;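 further: luciferase signal from cell-cell fusion driven by HIV-1 clade B AD8 Env; potency is for inhibitors of fusion seen as a drop in luminescence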
[10] = target: T4, RNA-binding protein pos-1 (Caenorhabditis elegans, UniProt G5EF15); assay: inhibitors of POS-1/mex-3 RNA binding, dose response, biochemical, fluorescence polarization (AID 1964);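 further: purified POS-1 fused to maltose binding protein made in E. coli; potency of compounds blocking POS-1 binding to fluorescent RNA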
T4 sequence (G5EF15 whole entry): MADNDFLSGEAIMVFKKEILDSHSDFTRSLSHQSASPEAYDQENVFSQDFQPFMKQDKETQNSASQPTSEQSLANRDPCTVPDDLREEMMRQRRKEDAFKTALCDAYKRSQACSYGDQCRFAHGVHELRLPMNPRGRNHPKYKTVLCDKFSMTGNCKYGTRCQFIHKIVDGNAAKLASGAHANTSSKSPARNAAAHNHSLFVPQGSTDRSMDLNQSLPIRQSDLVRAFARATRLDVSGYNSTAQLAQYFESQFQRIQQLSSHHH

[11] = target: T5, Zinc finger protein mex-5 (Caenorhabditis elegans, UniProt Q9XUB2); assay: MEX-5/TCR-2 RNA interaction inhibitors, dose response, biochemical, C. elegans, fluorescence polarization (AID 1960)
T5 sequence (Q9XUB2 whole entry): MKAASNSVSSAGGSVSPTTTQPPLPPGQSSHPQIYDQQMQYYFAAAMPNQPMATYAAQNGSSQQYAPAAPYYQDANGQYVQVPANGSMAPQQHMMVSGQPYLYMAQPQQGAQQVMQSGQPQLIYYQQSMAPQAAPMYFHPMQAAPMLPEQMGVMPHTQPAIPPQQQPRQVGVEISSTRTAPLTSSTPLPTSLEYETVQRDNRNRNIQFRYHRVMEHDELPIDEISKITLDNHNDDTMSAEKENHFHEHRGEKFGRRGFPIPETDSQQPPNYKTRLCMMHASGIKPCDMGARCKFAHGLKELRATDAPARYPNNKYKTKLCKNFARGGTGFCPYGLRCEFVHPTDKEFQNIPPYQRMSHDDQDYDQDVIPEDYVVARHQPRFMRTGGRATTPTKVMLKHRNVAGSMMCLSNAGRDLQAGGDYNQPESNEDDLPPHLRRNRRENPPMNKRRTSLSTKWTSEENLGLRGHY

Vero = assay: cells; type: functional; conditions: Chlorocebus sabaeus
Large T antigen = Large T antigen (Simian virus 40, UniProt P03070); type: functional, Betapolyomavirus macacae;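 further: Confirmatory-stage PubChem screen for compounds that inhibit SV40 T antigen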
[12] = target: Glucose-6-phosphate 1-dehydrogenase (Homo sapiens, UniProt P11413); assay: human G6PD enzyme inhibitors, dose response, selectivity assay for P. falciparum G6PD inhibitor project, biochemical, fluorescence (AID 504792); type: functional
Cytochrome P450 2C19 = Cytochrome P450 2C19 (Homo sapiens, UniProt P33261); assay: Cytochrome panel assay with activity outcomes. Panel member name: p450-cyp2c19 Compounds with AC50 equal or less than 10 uM are considered active; type: functional; conditions: read-out: AC50
Cytochrome P450 3A4 = Cytochrome P450 3A4 (Homo sapiens, UniProt P08684);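 further: CYP3A4 tested as one member of a cytochrome P450 panel screen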
[13] = inhibitors of intracellular T. cruzi replication, confirmation, NIH3T3 host cells, beta-gal luminescence (AID 2044); type: functional, cell-based;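 further: intracellular parasites grown in NIH/3T3 mouse fibroblasts as host cells; luminescent beta-galactosidase reporter signal from transgenic T. cruzi replicating inside host cells; inhibitors lower the luminescence signal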
[14] = cytotoxicity toward NIH3T3 fibroblasts, dose response, counter-screen, cell-based, ATP luminescence, mouse fibroblasts (AID 2010); type: functional;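 further: cells exposed to compound for about 90 hours before reading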
[15] = target: T6, Rac GTPase-activating protein 1 (Homo sapiens, UniProt Q9H0H5); assay: MgcRacGAP GTPase-activating activity inhibitors, confirmation, biochemical, ADP Hunter fluorescence, primary and confirmatory (AID 624330); type: functional
T6 sequence (Q9H0H5 whole entry): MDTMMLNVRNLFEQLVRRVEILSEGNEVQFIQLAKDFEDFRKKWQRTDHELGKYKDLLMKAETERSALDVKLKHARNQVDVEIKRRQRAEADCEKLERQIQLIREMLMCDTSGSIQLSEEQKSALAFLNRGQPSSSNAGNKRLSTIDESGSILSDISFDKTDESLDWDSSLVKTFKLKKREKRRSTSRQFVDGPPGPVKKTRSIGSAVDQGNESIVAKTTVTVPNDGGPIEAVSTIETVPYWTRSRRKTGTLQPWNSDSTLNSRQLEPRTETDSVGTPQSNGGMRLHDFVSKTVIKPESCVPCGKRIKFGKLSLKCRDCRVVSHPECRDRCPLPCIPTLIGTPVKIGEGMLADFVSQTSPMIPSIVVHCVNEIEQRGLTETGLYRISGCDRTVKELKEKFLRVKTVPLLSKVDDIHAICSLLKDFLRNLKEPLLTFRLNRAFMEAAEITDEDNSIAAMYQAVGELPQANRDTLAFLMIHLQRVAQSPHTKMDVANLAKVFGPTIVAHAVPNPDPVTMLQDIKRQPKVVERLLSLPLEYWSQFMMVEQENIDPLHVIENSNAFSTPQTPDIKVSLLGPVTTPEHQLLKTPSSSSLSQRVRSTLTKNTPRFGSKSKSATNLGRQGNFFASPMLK

[16] = Shn3 3'UTR reporter inhibitors, dose response, cell-based, Clone20 osteoblasts, firefly luciferase, cherry-picked (AID 624132); type: functional;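 further: firefly luciferase luminescence from reporter carrying the Shn3 3'UTR in osteoblasts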

O=C(NNc1cccc([N+](=O)[O-])c1)/C(=C\c1cccnc1)NC(=O)c1ccccc1
IC50 (Fatty acid synthase [1]): 6.04 µM (active)
IC50 (Fatty acid synthase [2]): 4.39 µM (active)

CCC(=O)C1=C(NCCc2c(C)[nH]c3ccc(C)cc23)CC(c2ccccc2)CC1=O (configuration not stated)
EC50 [3]: 798 µM (active)

NC(=O)c1c(NC(=O)C2CCCO2)sc2c1CCCCC2 (configuration not stated)
IC50 (Leucine aminopeptidase): 58.7 µM (active)
IC50 [4]: > 66 µM (inactive)
IC50 [5]: > 66 µM (inactive)

COc1ccccc1N1CCN(CC(O)COc2ccc3c(c2)CCC3)CC1 (configuration not stated)
EC50 [3]: 5.92 µM (active)

CC(=O)Nc1c(O)nc(SCC(=O)Nc2sc3c(c2C#N)CCCCCC3)nc1O
IC50 (Leucine aminopeptidase): 27.9 µM (active)

CCOC(=O)CSC(C)C(=O)Nc1nnc(C(C)C)s1 (configuration not stated)
IC50 (Leucine aminopeptidase): 37.7 µM (active)

Cc1[nH]c2ccccc2c1Cc1nnc(SCc2ccccc2)o1
EC50 [3]: 3.55 µM (active)

Cc1ccc(S(=O)(=O)N2CCN(S(=O)(=O)c3ccc(C)cc3)C2c2ccccc2)cc1
AC50 [6]: 4.63 µM (active)
AC50 [7]: 4.2 µM (active)
AC50 [8]: 4.72 µM (active)
AC50 [9]: 1.58 µM (active)

O=C1NC(=O)/C(=C2\C(=O)Nc3ccc([N+](=O)[O-])cc32)S1
EC50 [10]: 13.2 µM (active)
EC50 [11]: 21.5 µM (inconclusive)
IC50 (Fatty acid synthase [1]): 13.8 µM (active)
IC50 (Fatty acid synthase [2]): 9.24 µM (active)

COc1cc(/C=C/C(=O)c2ccc(NS(=O)(=O)c3ccc(C)cc3)cc2)ccc1OC(F)F
CC50 (Vero): 22.5 µM (active)

CCN(C[C@H]1N[C@@](CC)(C(=O)OC)[C@H]2C(=O)N(Cc3ccccc3)C(=O)[C@@H]12)C(=O)Nc1ccc(Cl)cc1
AC50 [6]: < 0.26 µM (active)
AC50 [7]: < 0.26 µM (active)
AC50 [8]: 0.367 µM (active)
AC50 [9]: 0.277 µM (active)

COC(=O)C1=C(O)/C(=C/c2cccc(OC)c2O)N=C1C
IC50 (Large T antigen): 14.8 µM (active)

COc1ccc(-c2c[nH]nc2N)cc1
IC50 (Leucine aminopeptidase): 60.8 µM (active)

COc1cc(NC(C)CCc2ccccc2)cc(OC)c1OC (configuration not stated)
IC50 [12]: 43.3 µM (inactive)

CCc1ccc(C(=O)COC(=O)c2cc([N+](=O)[O-])ccc2NCCO)cc1
IC50 (Fatty acid synthase [1]): 1.87 µM (active)
IC50 (Fatty acid synthase [2]): 3.82 µM (active)

COc1ccc(CNC(=O)Cc2cn(C)c3ccccc23)c(OC)c1
IC50 [12]: > 80 µM (inactive)

Cc1ccc(NC(=O)CN(C)C(=O)CSc2n[nH]c(N)n2)cc1
IC50 (Leucine aminopeptidase): 44.7 µM (active)
AC50 (Cytochrome P450 2C19): 35.5 nM (inconclusive)
AC50 (Cytochrome P450 3A4): 31.6 µM (inconclusive)

COC(=O)c1cccc(NC(=O)Cn2cnc3ccccc3c2=O)c1
IC50 (Leucine aminopeptidase): 43.5 µM (active)

CCOC(=O)Cc1cc(O)n2nc(C(C)(C)C)cc2n1
IC50 [12]: > 80 µM (inactive)

O=C(c1ccc(Cl)c(Cl)c1)N1CCC(=O)N(C(COCc2ccccc2)Cc2ccccc2)CC1 (configuration not stated)
EC50 [3]: 2.88 µM (active)

Cc1ccsc1/C=C1/C(=O)NN(c2ccccc2)C1=O
IC50 (Large T antigen): 28.1 µM (active)

COc1ccccc1NS(=O)(=O)c1cc(NC(=O)Nc2cccc(C)c2)ccc1N1CCCCC1
EC50 [13]: 2.16 µM (active)
EC50 [14]: > 60 µM (not active)
IC50 [4]: > 66 µM (inactive)
IC50 [5]: > 66 µM (inactive)

Cc1cc(NC(=O)/C=C/C(=O)N(c2ccccc2C)C(C(=O)NC2CCCC2)c2ccc(F)cc2)no1 (configuration not stated)
CC50 (Vero): 12.1 µM (active)

O=C(c1cc2sccc2n1Cc1ccc(F)cc1)N1CCCc2ccccc21
EC50 [3]: 4.88 µM (active)

N#CC1CCN(C(=O)c2ccc3c(Cl)c4c(nc3c2)CCCC4)CC1
IC50 (Fatty acid synthase [1]): 2.16 µM (active)
IC50 (Fatty acid synthase [2]): 1.89 µM (active)

CCCCN(Cc1ccccc1)S(=O)(=O)c1cc(Br)cc2c1N(C(C)=O)C(C)C2 (configuration not stated)
EC50 [3]: 18.2 µM (active)

C/C(=N/Nc1ccc(C(=O)O)cc1)c1ccc2c(c1)Nc1ccccc1S2
IC50 (Fatty acid synthase [1]): 13.2 µM (active)
IC50 [15]: 50.6 µM (active)
IC50 (Fatty acid synthase [2]): 11.1 µM (active)

CCN(CC)S(=O)(=O)c1ccc(N2CCOCC2)c(NC(=O)c2nn(C(C)C)c(=O)c3ccccc23)c1
AC50 [16]: 15.6 µM (active)

c1cc(-c2ccoc2)n2ccnc2c1
IC50 [4]: > 66 µM (inactive)
IC50 [5]: > 66 µM (inactive)

CCOC1=C2[C@@H](CN(S(=O)(=O)c3ccccc3C)[C@H]2c2ccc(Cl)cc2)[C@H]2C(=O)NC(=O)[C@H]2C1
AC50 [6]: 3.71 µM (active)
AC50 [7]: 3.92 µM (active)
AC50 [8]: 7.02 µM (active)
AC50 [9]: 19.5 µM (active)

O=C(CCC(=O)Nc1ccccc1Cl)N/N=C/c1ccccc1
IC50 [12]: 31.6 µM (inactive)

N=C(N)N/N=C/c1ccc(Cl)c(Cl)c1
CC50 (Vero): 21.4 µM (active)
